Values quoted from earlier work as cited in patent US12622888B2, “Pharmaceutical composition and application thereof” (priority 2019, dated 2026).

Test system: infarct size of the heart
Details: prior art CN2011102229806, FIG. 3

CC(C)=CCC[C@](C)(O[C@@H]1O[C@H](CO)[C@@H](O)[C@H](O)[C@H]1O)[C@H]1CC[C@]2(C)[C@@H]1[C@H](O)C[C@@H]1[C@@]3(C)CC[C@H](O)C(C)(C)[C@@H]3[C@@H](O[C@@H]3O[C@H](CO)[C@@H](O)[C@H](O)[C@H]3O)C[C@]12C [ginsenoside Rg1]
rank order of the effect on reducing the infarct size: salvianolic acid B <ginsenoside Rg1<<salvianolic acid B: ginsenoside Rg1=2:5 group

O=C(/C=C/c1ccc(O)c2c1[C@H](C(=O)O[C@H](Cc1ccc(O)c(O)c1)C(=O)O)[C@@H](c1ccc(O)c(O)c1)O2)O[C@H](Cc1ccc(O)c(O)c1)C(=O)O [salvianolic acid B]
rank order of the effect on reducing the infarct size: salvianolic acid B <ginsenoside Rg1<<salvianolic acid B: ginsenoside Rg1=2:5 group
